Measured values as given in paper PMC5608352, “Formyl peptide derived lipopeptides disclose differences between the receptors in mouse and men and call the pepducin concept in question” (PLoS ONE, 2017).
“Also recorded” adds a separate entry of the source. Residues, ends and D or L forms follow the SMILES beside them. *: point of attachment. Palmitoyl = CCCCCCCCCCCCCCCC(=O)*

How the values were obtained:
Type in all cases: cell-based
mouse neutrophils = target: T1, mouse neutrophils (Mus musculus, UniProt O88536); test: Direct activation: superoxide release (isoluminol/HRP chemiluminescence), WT mouse bone marrow neutrophils; conditions: WT mouse (C57BL/6) bone marrow neutrophils, TNF-α primed, 5 x 10^4 cells, 37°C, isoluminol/HRP CL, peak activity; pepducin 1 μM in figures
T1 sequence (O88536 1-351): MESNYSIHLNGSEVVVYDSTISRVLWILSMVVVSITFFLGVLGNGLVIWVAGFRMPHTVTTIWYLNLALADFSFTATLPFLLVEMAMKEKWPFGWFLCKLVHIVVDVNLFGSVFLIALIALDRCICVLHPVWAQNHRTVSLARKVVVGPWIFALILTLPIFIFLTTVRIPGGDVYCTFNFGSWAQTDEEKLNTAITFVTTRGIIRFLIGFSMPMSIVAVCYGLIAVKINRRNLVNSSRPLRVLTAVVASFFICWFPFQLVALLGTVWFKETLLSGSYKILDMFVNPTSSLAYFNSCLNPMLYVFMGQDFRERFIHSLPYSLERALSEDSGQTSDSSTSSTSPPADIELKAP
Source text: (§1) Mice (8–12 weeks of age) were killed by cervical dislocation, the femurs and tibias were removed and freed of soft tissue attachments, and the extreme distal tip of each extremity was cut off. KRG without Ca^2+ and Mg^2+ (KRG-) was forced through the bone by using a 1-mL syringe with a 27-gauge needle. After dispersing cell clumps and removing the debris, the bone marrow granulocytes were isolated according to an earlier described procedure with some modifications. Briefly, a cell suspension in 2 mL of KRG- was laid on top of a three-layer Percoll gradient (1.095, 1.085, and 1.070 g/mL). The density of each Percoll solution was verified using density marker beads. After centrifugation at 500 × g for 30 min at 4°C in a swinging bucket rotor, the lowest band (1.085/1.095 g/mL interface) was collected as the neutrophil fraction. After washing with KRG-, remaining red blood cells were eliminated by hypotonic lysis. After a final wash with KRG-, the cells were resuspended in KRG. The cell number and population of bone marrow cells were determined by flow cytometry based on forward scatter (size) and side scatter (density) localization.
NADPH-oxidase activity was determined using an isoluminol and HRP-enhanced chemiluminescence (CL) system that allow for the determination of superoxide production. The CL activity was measured in a six-channel Biolumat LB 9505 apparatus (Berthold Co., Wildbad, Germany), using disposable 4-mL polypropylene tubes with 1 mL reaction mixture. The tubes contained 4 U HRP and 10 μg/mL isoluminol together with the cells that were equilibrated in the Biolumat for 5 min at 37°C, after which the stimulus solution (100 μL) was added. The light emission was recorded continuously over time and presented as superoxide production (in arbitrary light units, cpm x10^-6) as a function of time (min). The activity before stimulus addition was recorded as basal line and this activity was not changed in vehicle control samples. Since the FPR/Fpr-mediated superoxide production with respect to the onset and decline are very similar, the peak activities were used to compare the responses induced.
Naïve bone marrow cells produce very low levels of superoxide upon stimulation and to increase this production the cells were routinely primed for one hour at RT followed by TNF-α (10 ng/mL, final concentration) priming for a period of 20 min at 37°C [10]. The cells were then kept on ice until further analysis, as described above. The reason for choosing the chemiluminescence based NADPH-oxidase assay system was that very few cells are required, allowing us to monitor and quantify receptor-mediated events with the limited number of mouse bone marrow neutrophils available.
Data analysis was performed using Graph Pad Prism 7.0. The EC50/IC50 values were determined from experiments in which the activities were normalized to the response induced by maximal response or induced by agonist in the absence of inhibitor. The statistical analysis was performed on raw data using Student’s t-test when two groups were compared or one-way ANOVA with Dunnett’s multiple comparisons test in comparison to the control response when three groups were compared. * p ≤ 0.05 was considered significant.

human neutrophils = test: Direct activation: superoxide release (isoluminol/HRP chemiluminescence), human neutrophils; conditions: 10^5 cells, 37°C, isoluminol/HRP CL, pepducin 1 μM
Source text: (§2) Human peripheral blood neutrophils were isolated from buffy coats from healthy blood donors using dextran sedimentation and Ficoll-Paque gradient centrifugation as described. The remaining erythrocytes were disrupted by hypotonic lysis and the neutrophils were washed twice, suspended in KRG and, stored on melting ice until use. This isolation process permits cells to be purified with minimal granule mobilization. The buffy coats were obtained from the blood bank at Sahlgrenska University Hospital. Ethics approval was not needed since the buffy coats were provided anonymously and could not be traced back to a specific individual. This is in line with Swedish legislation section code 4§ 3p SFS 2003:460 (Lag om etikprövning av forskning som avser människor).
(§3) NADPH-oxidase activity was determined using an isoluminol and HRP-enhanced chemiluminescence (CL) system that allow for the determination of superoxide production. The CL activity was measured in a six-channel Biolumat LB 9505 apparatus (Berthold Co., Wildbad, Germany), using disposable 4-mL polypropylene tubes with 1 mL reaction mixture. […] The light emission was recorded continuously over time and presented as superoxide production (in arbitrary light units, cpm x10^-6) as a function of time (min). The activity before stimulus addition was recorded as basal line and this activity was not changed in vehicle control samples. […]

Fpr2 [1] = target: T2, Fpr2 (Mus musculus, UniProt O88536); test: Inhibition of PSMα2-induced superoxide release, WT mouse neutrophils; conditions: mF2Pal16 500 nM, 5 min pre-incubation; PSMα2 10 nM
T2 construct: WT mouse neutrophils (5 x 10^4 cells) were pre-incubated without (solid line) or with mF2Pal16; endogenous in cells; host or cells: bone marrow neutrophils of C57BL/6 wild-type mice, TNF-alpha primed
T2 sequence (O88536 1-351): T1 sequence (O88536 1-351)
Source text: as §1, with “After centrifugation at 500 × g for 30 min at 4°C in a swinging bucket rotor, the lowest band (1.085/1.095 g/mL interface) was collected as the neutrophil fraction. After washing with KRG-, remaining red blood cells were eliminated by hypotonic lysis. After a final wash with KRG-, the cells were resuspended in KRG.” left out
as §3, with “(min).” for “(min). The activity before stimulus addition was recorded as basal line and this activity was not changed in vehicle control samples.”

Fpr1 = test: Inhibition of fMIFL-induced superoxide release, WT mouse neutrophils; conditions: fMIFL 10 nM; mF2Pal16 1 μM (inset) or 500 nM
Source text: as §1, with “After centrifugation at 500 × g for 30 min at 4°C in a swinging bucket rotor, the lowest band (1.085/1.095 g/mL interface) was collected as the neutrophil fraction. After washing with KRG-, remaining red blood cells were eliminated by hypotonic lysis. After a final wash with KRG-, the cells were resuspended in KRG.” left out
as §3, with “(min).” for “(min). The activity before stimulus addition was recorded as basal line and this activity was not changed in vehicle control samples.”

Fpr2 [2] = target: T2, Fpr2; test: Inhibition of F2M2-induced superoxide release, WT mouse neutrophils; conditions: mF2Pal16 500 nM; F2M2 150 nM; three independent experiments
Source text: as §1, with “After centrifugation at 500 × g for 30 min at 4°C in a swinging bucket rotor, the lowest band (1.085/1.095 g/mL interface) was collected as the neutrophil fraction. After washing with KRG-, remaining red blood cells were eliminated by hypotonic lysis. After a final wash with KRG-, the cells were resuspended in KRG.” left out
as §3, with “(min).” for “(min). The activity before stimulus addition was recorded as basal line and this activity was not changed in vehicle control samples.”

FPR2 [3] = test: Inhibition of PSMα2-induced superoxide release, human neutrophils
Source text: as §2, §3

FPR2 [4] = test: Receptor preference in human neutrophils (FPR2 versus FPR1); conditions: conclusion from superoxide release experiments
Source text: as §2, §3

Fpr2 [5] = target: T2, Fpr2; test: Receptor preference in mouse neutrophils (Fpr2 versus Fpr1); conditions: conclusion from superoxide release, Fpr2^-/- cells, desensitization and inhibitors
Source text: C57BL/6 wild-type mice were purchased from Charles River Laboratories and Fpr2^−/− mice generated as described previously, were generously provided by Dr Ji Ming Wang, Frederick National Laboratory for Cancer Research, USA. Mice were kept under standard temperature and light conditions and fed laboratory chow and water ad libitum, at the Department of Rheumatology and Inflammation Research, University of Gothenburg. Sex matched WT and Fpr2^-/- animals (age 8–10 weeks) were used to isolated bone marrow derived neutrophils. The studies performed were approved by the Ethical Committee for Animal Experimentation, Göteborg, Sweden.
Mice (8–12 weeks of age) were killed by cervical dislocation, the femurs and tibias were removed and freed of soft tissue attachments, and the extreme distal tip of each extremity was cut off. […] The cell number and population of bone marrow cells were determined by flow cytometry based on forward scatter (size) and side scatter (density) localization.
NADPH-oxidase activity was determined using an isoluminol and HRP-enhanced chemiluminescence (CL) system that allow for the determination of superoxide production. The CL activity was measured in a six-channel Biolumat LB 9505 apparatus (Berthold Co., Wildbad, Germany), using disposable 4-mL polypropylene tubes with 1 mL reaction mixture. […]

CCCCCCCCCCCCCCCC(=O)N[C@@H](CCCCN)C(=O)N[C@H](C(=O)N[C@@H](CC(N)=O)C(=O)N[C@@H](CCCNC(=N)N)C(=O)N[C@@H](CCCNC(=N)N)C(=O)N[C@@H](CC(N)=O)C(=O)N[C@@H](CC(C)C)C(=O)N[C@H](C(=O)N[C@@H](CC(N)=O)C(=O)N[C@@H](CO)C(=O)N[C@@H](CO)C(=O)N[C@@H](CCCNC(=N)N)C(=O)N1CCC[C@H]1C(=O)N[C@@H](CC(C)C)C(=O)N[C@@H](CCCNC(=N)N)C(=O)N[C@H](C(=O)O)C(C)C)C(C)C)[C@@H](C)CC [mF2Pal16] (Palmitoyl-KINRRNLVNSSRPLRV-OH; C-terminus assumed)
superoxide release / activation of WT mouse neutrophils (mouse neutrophils): No activation of mouse neutrophils | superoxide release / activation of human neutrophils (human neutrophils): did not activate human neutrophils to produce superoxide | inhibition of PSMα2 response, mouse neutrophils (Fpr2 [1]): potently inhibited | effect on fMIFL response, mouse neutrophils (Fpr1): no effect | effect on F2M2 response, mouse neutrophils (Fpr2 [2]): inhibitory effect | effect on PSMα2 response, human neutrophils (FPR2 [3]): largely inhibited | receptor preference / modulation of FPR2 (versus FPR1) in human neutrophils (FPR2 [4]): potent and selective inhibitor for Fpr2/FPR2; also recorded: inhibits the activity of FPR2 in human neutrophils | receptor preference / modulation of Fpr2 (versus Fpr1) in mouse neutrophils (Fpr2 [5]): inhibits the activity of Fpr2 in mouse neutrophils; also recorded: potent and selective inhibitor for Fpr2/FPR2; also recorded: targets this receptor
